# Source: patent US11161842B2, “Bifunctional molecules for degradation of EGFR and methods of use” (Dana-Farber Cancer Institute, Inc., priority 2016, dated 2021)
# Key:
# [1] = biological target: T1, T790M/L858R/C797S transformed Ba/F3 cells (Homo sapiens, UniProt P00533, T790M/C797S/L858R, cells depend on it); test: Ba/F3 cell proliferation (MTS) assay, T790M/L858R/C797S; type: cell-based, murine; conditions: antiproliferative activity
# T1 construct: The constructs were shuttled into the retroviral vector JP 1540 using the BD Creator™ System (BD Biosciences)
# [2] = biological target: T2, T790M/L858R transformed Ba/F3 cells (Homo sapiens, UniProt P00533, T790M/L858R, cells depend on it); test: Ba/F3 cell proliferation (MTS) assay, T790M/L858R; type: cell-based, murine; conditions: for EC50: antiproliferative activity; for % control: compound at 1 μM, inhibition of growth as percent of control
# T2 construct: The constructs were shuttled into the retroviral vector JP 1540 using the BD Creator™ System (BD Biosciences)
# Text: The EGFR mutant L858R, Del E746_A750, L858R/T790M, DelE746_A750/T790M, L858R/T790M/C797S and Del/T790M/C797S Ba/F3 cells have been previously described (Zhou, W., Ercan, D., Chen, L., Yun, C. H., Li, D., Capelletti, M., Cortot, A. B., Chirieac, L., Iacob, R. E., Padera, R., et al. “Novel mutant-selective EGFR kinase inhibitors against EGFR T790M,” Nature 462, (2009), 1070-1074). All cell lines were maintained in RPMI 1640 (Cellgro; Mediatech Inc., Herndon, Calif.) supplemented with 10% FBS 100 units/mL penicillin, 100 units/mL streptomycin, and 2 mM glutamine. L858R cells were maintained in ACL-4 media (Invitrogen, Carlsbad, Calif.) supplemented with 5% FBS, 100 units/mL penicillin, 100 units/mL streptomycin, and 2 mM glutamine. The EGFR I941R mutation was introduced via site directed mutagenesis using the Quick Change Site-Directed Mutagenesis kit (Stratagene; La Jolla, Calif.) according to the manufacturer's instructions. All constructs were confirmed by DNA sequencing. The constructs were shuttled into the retroviral vector JP 1540 using the BD Creator™ System (BD Biosciences). Ba/F3 cells were infected with retrovirus and according to standard protocols, as described previously (Zhou et al, Nature 2009). Stable clones were obtained by selection in puromycin (2 μg/ml).
# Growth and inhibition of growth was assessed by MTS assay and was performed according to previously established methods (Zhou et al., Nature 2009). The MTS assay is a colorimetric method for determining the number of viable cells that is based on the bioreduction of MTS by cells to a formazan product that is soluble in cell culture medium and can be detected spectrophotometrically. Ba/F3 cells of different EGFR genotypes were exposed to treatment for 72 hours and the number of cells used per experiment determined empirically and has been previously established (Zhou et al., Nature 2009). All experimental points were set up in six wells and all experiments were repeated at least three times. […] The curves were fitted using a non-linear regression model with a sigmoidal dose response.
# Compounds of Table 1 were tested at a concentration of 1 μM against T790M/L858R transformed Ba/F3 cells. The assay, as described in Example 42, measured inhibition of growth as a percent of the inhibitory activity of the control. In Table 1, A is 0<% control <25, B is 25<% control <50, C is 50<% control <75, and D is 75<% control.
# Compounds of Table 2 were tested in a T790M/L858R transformed Ba/F3 cell line as described in Example 42 and the EC50 values were calculated. In Table 2, A is EC50<500 nM, B is 500 nM<EC50<1000 nM, C is 1000 nM<EC50<5000 nM, and D is 5000 nM<EC50.
# T1 sequence (P00533 whole entry T790M/C797S/L858R): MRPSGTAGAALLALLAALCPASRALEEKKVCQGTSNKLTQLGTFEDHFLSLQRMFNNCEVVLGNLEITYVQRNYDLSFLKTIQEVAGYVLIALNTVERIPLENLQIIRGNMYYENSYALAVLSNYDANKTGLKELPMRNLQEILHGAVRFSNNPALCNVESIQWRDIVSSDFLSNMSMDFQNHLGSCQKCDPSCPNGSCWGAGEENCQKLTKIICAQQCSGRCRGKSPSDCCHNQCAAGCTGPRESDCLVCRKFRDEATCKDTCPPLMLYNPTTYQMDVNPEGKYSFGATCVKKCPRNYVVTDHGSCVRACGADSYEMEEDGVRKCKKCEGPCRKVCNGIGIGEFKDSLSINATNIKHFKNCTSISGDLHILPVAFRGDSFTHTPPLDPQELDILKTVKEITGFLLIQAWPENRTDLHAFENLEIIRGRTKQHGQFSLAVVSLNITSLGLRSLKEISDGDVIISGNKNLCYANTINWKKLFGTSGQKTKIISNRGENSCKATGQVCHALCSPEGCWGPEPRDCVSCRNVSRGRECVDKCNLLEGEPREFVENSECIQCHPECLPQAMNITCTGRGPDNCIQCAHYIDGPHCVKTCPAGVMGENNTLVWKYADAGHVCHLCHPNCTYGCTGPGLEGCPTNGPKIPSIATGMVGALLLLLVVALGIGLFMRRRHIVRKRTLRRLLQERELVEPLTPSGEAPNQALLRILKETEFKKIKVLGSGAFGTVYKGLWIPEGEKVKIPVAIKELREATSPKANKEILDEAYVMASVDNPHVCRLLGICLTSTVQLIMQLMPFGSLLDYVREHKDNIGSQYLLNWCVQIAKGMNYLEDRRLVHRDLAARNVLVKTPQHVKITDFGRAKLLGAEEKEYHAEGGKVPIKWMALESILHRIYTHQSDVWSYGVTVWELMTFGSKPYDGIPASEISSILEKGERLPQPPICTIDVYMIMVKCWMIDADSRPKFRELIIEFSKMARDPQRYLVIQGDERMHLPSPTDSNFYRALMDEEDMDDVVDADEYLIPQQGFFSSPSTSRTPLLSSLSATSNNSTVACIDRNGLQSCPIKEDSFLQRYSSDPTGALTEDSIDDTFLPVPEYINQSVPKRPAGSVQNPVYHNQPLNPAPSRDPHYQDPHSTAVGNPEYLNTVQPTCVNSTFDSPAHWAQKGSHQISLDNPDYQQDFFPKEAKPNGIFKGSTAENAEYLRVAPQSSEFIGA
# T2 sequence (P00533 whole entry T790M/L858R): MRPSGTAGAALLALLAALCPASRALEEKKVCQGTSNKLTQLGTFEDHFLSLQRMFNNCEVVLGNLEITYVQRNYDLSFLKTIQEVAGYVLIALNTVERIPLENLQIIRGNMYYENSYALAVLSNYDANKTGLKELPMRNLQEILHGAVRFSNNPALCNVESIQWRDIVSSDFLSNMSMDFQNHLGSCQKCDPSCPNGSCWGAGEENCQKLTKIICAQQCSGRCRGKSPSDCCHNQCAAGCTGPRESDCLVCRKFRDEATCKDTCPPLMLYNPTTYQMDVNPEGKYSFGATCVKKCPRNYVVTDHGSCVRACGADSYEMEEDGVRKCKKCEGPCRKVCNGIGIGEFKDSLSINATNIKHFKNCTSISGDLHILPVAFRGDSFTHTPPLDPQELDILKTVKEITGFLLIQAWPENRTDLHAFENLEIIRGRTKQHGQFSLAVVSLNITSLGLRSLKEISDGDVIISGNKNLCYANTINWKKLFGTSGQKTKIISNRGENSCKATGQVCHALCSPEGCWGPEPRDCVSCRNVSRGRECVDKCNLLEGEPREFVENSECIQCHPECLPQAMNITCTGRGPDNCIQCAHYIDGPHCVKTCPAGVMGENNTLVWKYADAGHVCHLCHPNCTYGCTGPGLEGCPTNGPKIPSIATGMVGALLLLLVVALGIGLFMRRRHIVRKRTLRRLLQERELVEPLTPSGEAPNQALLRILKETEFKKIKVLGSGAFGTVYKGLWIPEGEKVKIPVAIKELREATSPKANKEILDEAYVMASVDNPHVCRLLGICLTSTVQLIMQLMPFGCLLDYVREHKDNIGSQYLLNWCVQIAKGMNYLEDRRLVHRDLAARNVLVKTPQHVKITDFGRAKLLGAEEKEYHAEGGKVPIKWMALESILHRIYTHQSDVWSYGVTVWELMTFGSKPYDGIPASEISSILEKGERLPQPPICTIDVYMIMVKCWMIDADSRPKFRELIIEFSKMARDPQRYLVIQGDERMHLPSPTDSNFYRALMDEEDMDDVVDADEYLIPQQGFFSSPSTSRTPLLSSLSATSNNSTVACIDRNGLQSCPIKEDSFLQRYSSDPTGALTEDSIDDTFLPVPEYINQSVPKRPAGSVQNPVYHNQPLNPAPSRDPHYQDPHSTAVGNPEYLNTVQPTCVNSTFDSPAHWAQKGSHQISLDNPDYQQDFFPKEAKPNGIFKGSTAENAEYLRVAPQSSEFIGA
EC50 [1] [µM],EC50 [2] [µM],% control [2],Structure (SMILES)
0.5 to 1,< 0.5,A (A is 0<% control <25),"O=C1CCC(N2C(=O)c3cccc(NCCOCCOCCOCCC(=O)N4CCN(c5ccc(-c6ccc7c(c6)C(=O)N(C(C(=O)Nc6nccs6)c6ccccc6)C7)cc5)CC4)c3C2=O)C(=O)N1 (stereo not shown) [Compound I-1, 2-(6-(4-(4-(3-(2-(2-(2-((2-(2,6-Dioxopiperidin-3-yl)-1,3-dioxoisoindolin-4-yl)amino)ethoxy)ethoxy)ethoxy)propanoyl)piperazin-1-yl)phenyl)-1-oxoisoindolin-2-yl)-2-phenyl-N-(thiazol-2-yl)acetamide]"
> 5,1 to 5,B (B is 25<% control <50),"O=C1CCC(N2C(=O)c3cccc(NCCOCCOCCOCCN4CCN(c5ccc(-c6ccc7c(c6)C(=O)N(C(C(=O)Nc6nccs6)c6cc(F)ccc6O)C7)cc5)CC4)c3C2=O)C(=O)N1 (stereo not shown) [Compound I-10, 2-(6-(4-(4-(2-(2-(2-(2-((2-(2,6-Dioxopiperidin-3-yl)-1,3-dioxoisoindolin-4-yl)amino)ethoxy)ethoxy)ethoxy)ethyl)piperazin-1-yl)phenyl)-1-oxoisoindolin-2-yl)-2-(5-fluoro-2-hydroxyphenyl)-N-(thiazol-2-yl)acetamide]"
> 5,1 to 5,B (B is 25<% control <50),"O=C1CCC(N2C(=O)c3cccc(NCCCCCCN4CCN(c5ccc(-c6ccc7c(c6)C(=O)N(C(C(=O)Nc6nccs6)c6cc(F)ccc6O)C7)cc5)CC4)c3C2=O)C(=O)N1 (stereo not shown) [Compound I-11, 2-(6-(4-(4-(6-((2-(2,6-Dioxopiperidin-3-yl)-1,3-dioxoisoindolin-4-yl)amino)hexyl)piperazin-1-yl)phenyl)-1-oxoisoindolin-2-yl)-2-(5-fluoro-2-hydroxyphenyl)-N-(thiazol-2-yl)acetamide]"
> 5,1 to 5,B (B is 25<% control <50),"O=C1CCC(N2C(=O)c3cccc(NCCCCCCCCN4CCN(c5ccc(-c6ccc7c(c6)C(=O)N(C(C(=O)Nc6nccs6)c6cc(F)ccc6O)C7)cc5)CC4)c3C2=O)C(=O)N1 (stereo not shown) [Compound I-12, 2-(6-(4-(4-(8-((2-(2,6-Dioxopiperidin-3-yl)-1,3-dioxoisoindolin-4-yl)amino)octyl)piperazin-1-yl)phenyl)-1-oxoisoindolin-2-yl)-2-(5-fluoro-2-hydroxyphenyl)-N-(thiazol-2-yl)acetamide]"
–,–,D (D is 75<% control),"CC1(N2C(=O)c3cccc(NCCOCCOCCOCCC(=O)N4CCN(c5ccc(-c6ccc7c(c6)C(=O)N(C(C(=O)Nc6nccs6)c6ccccc6)C7)cc5)CC4)c3C2=O)CCC(=O)NC1=O (stereo not shown) [Compound I-27, 2-(6-(4-(4-(3-(2-(2-(2-((2-(3-Methyl-2,6-dioxopiperidin-3-yl)-1,3-dioxoisoindolin-4-yl)amino)ethoxy)ethoxy)ethoxy)propanoyl)piperazin-1-yl)phenyl)-1-oxoisoindolin-2-yl)-2-phenyl-N-(thiazol-2-yl)acetamide]"
–,–,D (D is 75<% control),O=C1CCC(N2C(=O)c3cccc(N4CCN(c5ccc(-c6ccc7c(c6)C(=O)N(C(C(=O)Nc6nccs6)c6ccccc6)C7)cc5)CC4)c3C2=O)C(=O)N1 (stereo not shown) [Compound I-35]
–,–,B (B is 25<% control <50),"O=C(Nc1nccs1)C(c1ccccc1)N1Cc2ccc(-c3ccc(N4CCNCC4)cc3)cc2C1=O (stereo not shown) [TL Compd 1, 2-(1-oxo-6-(4-(piperazin-1-yl)phenyl)isoindolin-2-yl)-2-phenyl-N-(thiazol-2-yl)acetamide]"

Structure (SMILES),EC50 [1] [µM],EC50 [2] [µM],% control [2]
O=C(Nc1nccs1)C(c1cc(F)ccc1O)N1Cc2ccc(-c3ccc(N4CCNCC4)cc3)cc2C1=O (stereo not shown) [TL Compd 2],–,–,D (D is 75<% control)
